Assay [1] concerns MC3T3-E1. The assay is described as follows: Induction of osteoblast proliferation in mouse MC3T3-E1 cells assessed as growth rate relative to untreated control at 10^-5 mol/L after 48 hrs by MTT assay. The class given is functional. As to conditions: MC3T3-E1, 48 h, read-out: Activity.
The test system of assay [2] is MC3T3-E1. In words: Induction of osteoblast proliferation in mouse MC3T3-E1 cells assessed a growth rate relative to untreated control at 10^-6 mol/L after 48 hrs by MTT assay. The class given is functional.
Assay [3] relates to MC3T3-E1. In words: Induction of osteoblast proliferation in mouse MC3T3-E1 cells assessed a growth rate relative to untreated control at 10^-7 mol/L after 48 hrs by MTT assay. The class given is functional.
For assay [4], the system named is MC3T3-E1. The assay is described as follows: Induction of osteoblast proliferation in mouse MC3T3-E1 cells assessed a growth rate relative to untreated control at 10^-8 mol/L after 48 hrs by MTT assay. The class given is functional.
Assay [5] relates to Osteoclast. In words: Inhibition of New Zealand white rabbit bone marrow-derived osteoclast differentiation assessed as reduction in TRAP activity in at 1 x 10^-5 mol/L measured on day 8 post dose by StrACP assay. The class given is functional, cell-based. The settings on record: Oryctolagus cuniculus.
Assay [6] concerns Osteoclast. The assay is described as follows: Inhibition of New Zealand white rabbit bone marrow-derived osteoclast differentiation assessed as reduction in TRAP positive cells at 1 x 10^-5 to 1 x 10^-8 mol/L measured on day 8 post dose by leukocyte acid phosphatase-staining based phase contrast microscopy. As to conditions: Oryctolagus cuniculus. It is filed as functional, cell-based.

Assay [7] has as its system Bone. In words: Anti-osteoporotic activity in bovine bone assessed as bone resorption of osteoclast at 1 x 10^-5 mol/L after 8 days by toluidine blue staining-based method. It is filed as functional, tissue-based. The settings on record: Bos taurus; Bone element.
Assay [8] concerns Osteoclast. The assay is described as follows: Inhibition of New Zealand white rabbit bone marrow-derived osteoclast differentiation assessed as reduction in TRAP activity in at 1 x 10^-6 to 1 x 10^-8 mol/L measured on day 8 post dose by StrACP assay. The settings on record: Oryctolagus cuniculus. It is filed as functional, cell-based.
The subject of assay [9] is Osteoclast. In words: Anti-osteoporotic activity assessed as osteoclast differentiation in rabbit bone marrow-derived osteoclast at 1 x 10^-5 mol/L after 8 days by TRAP staining-based phase-contrast microscopic method. As to conditions: Oryctolagus cuniculus. It is filed as functional, cell-based.
Assay [10] deals with Bone. In words: Anti-osteoporotic activity in bovine bone assessed as bone resorption of osteoclast at 1 x 10^-8 mol/L after 8 days by toluidine blue staining-based method. The class given is functional, tissue-based. As to conditions: Bos taurus; Bone element.

Calls of active or inactive are those of the source. No cut-off for these calls is given here.

Consider `CC1(C)C=Cc2c(cc3oc(-c4ccccc4Cl)c(CCC(C)(O)c4ccc(F)cc4)c(=O)c3c2O)O1` (centres undefined), for which the growth at 10 µM in the assay with MC3T3-E1 [1] was determined as 4.88%. Also, the Activity was determined as 11.03% in the assay on MC3T3-E1 [2], 6.45% in the assay with MC3T3-E1 [3] and 6.83% in the assay on MC3T3-E1 [4].

In the case of `CC1(C)C=Cc2c(cc3oc(-c4ccccc4Br)c(CCC(C)(O)c4ccc(F)cc4)c(=O)c3c2O)O1` (centres undefined), the growth at 10 µM in the assay on MC3T3-E1 [1] was -4.88%. For the same molecule, the Activity was determined as 1.49% in the assay with MC3T3-E1 [2], 6.25% with MC3T3-E1 [3] and 1.91% in the assay on MC3T3-E1 [4].

As to `CC1(C)C=Cc2c(cc(O)c3c(=O)c(CCC(C)(O)c4ccc(F)cc4)c(-c4ccccc4Cl)oc23)O1` (centres undefined), in the assay on MC3T3-E1 [1], the growth at 10 µM was determined as 15.9%. In addition, the Activity in the assay with MC3T3-E1 [2] was determined as 6.35%; in the assay on MC3T3-E1 [3] it was 6.89%; with MC3T3-E1 [4], 6.02%.

Consider `CC(C)(O)CCc1c(-c2ccc(O)cc2O)oc2cc3c(c(O)c2c1=O)C=CC(C)(C)O3`, for which, in the assay on MC3T3-E1 [1], the growth at 10 µM is -4.81%. The Activity worked out at 6.69% in the assay on MC3T3-E1 [2], 5.88% in the assay on MC3T3-E1 [3] and 2.26% in the assay on MC3T3-E1 [4]. Moreover, the inhibition entry in the assay with Osteoclast [5] and in the assay on Osteoclast [6] was “Active” throughout. For the same molecule, in the assay with Bone [7], the outcome was Active. In the assay with Osteoclast [8], the inhibition result is “inactive”.

Regarding `CC(C)(O)CCc1c(-c2ccccc2Br)oc2c3c(cc(O)c2c1=O)OC(C)(C)C=C3`, the growth at 10 µM in the assay with MC3T3-E1 [1] came out at 2.6%. For the same molecule, the Activity amounted to 0.33% with MC3T3-E1 [2], 4.22% with MC3T3-E1 [3] and 3.41% with MC3T3-E1 [4].

Regarding `CC(O)CCc1c(-c2ccccc2Br)oc2cc3c(c(O)c2c1=O)C=CC(C)(C)O3` (centres undefined), in the assay with MC3T3-E1 [1], the growth at 10 µM turned out to be 10.5%. In addition, the results for the Activity in the assay on MC3T3-E1 [2], in the assay on MC3T3-E1 [3] and in the assay with MC3T3-E1 [4] were 2.8%, 2.87% and -0.52%, respectively.

`CC(O)CCc1c(-c2ccccc2Br)oc2c3c(cc(O)c2c1=O)OC(C)(C)C=C3` (centres undefined): the growth at 10 µM in the assay on MC3T3-E1 [1] came out at 19.5%. The Activity in the assay with MC3T3-E1 [2] worked out at 4.94%; with MC3T3-E1 [3], 6.7%; in the assay with MC3T3-E1 [4] it was 7.02%.

Take `CC(C)=CCc1c(-c2ccc(O)cc2O)oc2c3c(cc(O)c2c1=O)OC(C)(C)C=C3` [MORUSIN]: the growth at 10 µM with MC3T3-E1 [1] was found to be 16%. The Activity with MC3T3-E1 [2] is recorded as 9.57%; with MC3T3-E1 [3], 3.88%; in the assay with MC3T3-E1 [4], 7.13%.

With `CC(=O)CCc1c(-c2ccccc2Br)oc2cc3c(c(O)c2c1=O)C=CC(C)(C)O3`, the growth at 10 µM in the assay with MC3T3-E1 [1] was found to be 10.6%. Moreover, the Activity is given as 0.88% in the assay with MC3T3-E1 [2], 0.79% with MC3T3-E1 [3] and 0.38% in the assay with MC3T3-E1 [4].

With `CC(O)CCc1c(-c2ccccc2Cl)oc2c3c(cc(O)c2c1=O)OC(C)(C)C=C3` (centres undefined), the growth at 10 µM in the assay on MC3T3-E1 [1] turned out to be 24%. Also, the Activity in the assay with MC3T3-E1 [2] was 5.18%; in the assay on MC3T3-E1 [3] it was 2.37%; with MC3T3-E1 [4] it was 0.53%.

With `CC(=O)CCc1c(-c2ccccc2Cl)oc2c3c(cc(O)c2c1=O)OC(C)(C)C=C3`, the growth at 10 µM in the assay with MC3T3-E1 [1] was found to be 18.3%. The Activity in the assay on MC3T3-E1 [2] stood at 6.01%; in the assay with MC3T3-E1 [3], 5.13%; with MC3T3-E1 [4], 0.06%.

Turning to `CC(=O)CCc1c(-c2ccccc2Cl)oc2cc3c(c(O)c2c1=O)C=CC(C)(C)O3`, the growth at 10 µM with MC3T3-E1 [1] came to 7.62%. Moreover, the Activity came out at 9% in the assay on MC3T3-E1 [2], 9.58% in the assay with MC3T3-E1 [3] and 0.85% in the assay with MC3T3-E1 [4].

For the molecule `CC1(C)C=Cc2c(cc(O)c3c(=O)c(CCC(C)(O)c4ccccc4)c(-c4ccccc4Br)oc23)O1` (centres undefined), the growth at 10 µM in the assay on MC3T3-E1 [1] amounted to 21.7%. Also, the Activity is 16.65% in the assay with MC3T3-E1 [2], 14.74% with MC3T3-E1 [3] and 8.56% in the assay with MC3T3-E1 [4]. Besides, the outcome with Osteoclast [9] and in the assay with Bone [7] was Active.

In the case of `CC(C)(O)CCc1c(-c2ccccc2Cl)oc2cc3c(c(O)c2c1=O)C=CC(C)(C)O3`, the growth at 10 µM with MC3T3-E1 [1] stood at 14.3%. Further, the results for the Activity in the assay with MC3T3-E1 [2], in the assay with MC3T3-E1 [3] and with MC3T3-E1 [4] were 4.61%, 3.74% and 6.39%, respectively.

Consider `CC(C)Oc1ccc2c(=O)c(-c3ccccc3)coc2c1` [IPRIFLAVONE], for which, in the assay on MC3T3-E1 [4], the Activity is given as 4.09 - 17.3%. The result in the assay with Bone [10] was Active.

For the molecule `CC(=O)CCc1c(-c2ccccc2Br)oc2c3c(cc(O)c2c1=O)OC(C)(C)C=C3`, in the assay with MC3T3-E1 [1], the growth at 10 µM came to 12.8%. Further, the Activity stood at 0.83% with MC3T3-E1 [2], 0.46% in the assay with MC3T3-E1 [3] and 2.42% in the assay with MC3T3-E1 [4].

On to `CC1(C)C=Cc2c(cc3oc(-c4ccccc4Br)c(CCC(C)(O)c4ccccc4)c(=O)c3c2O)O1` (centres undefined), for which, in the assay on MC3T3-E1 [1], the growth at 10 µM was determined as 12.1%. In addition, the Activity in the assay with MC3T3-E1 [2] was found to be 17.66%; in the assay on MC3T3-E1 [3], 6.08%; with MC3T3-E1 [4], 10.13%.

For `CC(C)(O)CCc1c(-c2ccccc2Br)oc2cc3c(c(O)c2c1=O)C=CC(C)(C)O3`, in the assay with MC3T3-E1 [1], the growth at 10 µM was found to be 13.4%. In addition, the values for the Activity in the assay on MC3T3-E1 [2], in the assay on MC3T3-E1 [3] and with MC3T3-E1 [4] were 7.7%, 4.54% and 8.54%, respectively. The outcome in the assay with Osteoclast [9] and in the assay on Bone [7] was Active.

Take `CC(C)(O)CCc1c(-c2ccccc2Cl)oc2c3c(cc(O)c2c1=O)OC(C)(C)C=C3`: the growth at 10 µM with MC3T3-E1 [1] was found to be 4.29%. Also, the Activity in the assay with MC3T3-E1 [2] worked out at 2.97%; in the assay on MC3T3-E1 [3], 1.78%; with MC3T3-E1 [4], 3.08%.

Turning to `CC1(C)C=Cc2c(cc(O)c3c(=O)c(CCC(C)(O)c4ccc(F)cc4)c(-c4ccccc4Br)oc23)O1` (centres undefined), in the assay with MC3T3-E1 [1], the growth at 10 µM was 17.2%. The values for the Activity in the assay on MC3T3-E1 [2], in the assay on MC3T3-E1 [3] and in the assay with MC3T3-E1 [4] were 7.88%, 6.42% and 4.55%, respectively. The result with Osteoclast [9] and in the assay with Bone [7] was Active.

As for `CC(O)CCc1c(-c2ccccc2Cl)oc2cc3c(c(O)c2c1=O)C=CC(C)(C)O3` (centres undefined), the growth at 10 µM in the assay with MC3T3-E1 [1] amounted to 27.1%. For the same molecule, the Activity is recorded as 5.63% in the assay with MC3T3-E1 [2], 7.45% in the assay with MC3T3-E1 [3] and 11.08% with MC3T3-E1 [4]. The outcome in the assay with Osteoclast [9] and in the assay with Bone [7] was Active.

The values are drawn from ChEMBL document CHEMBL4177558, “Rapid, microwave-accelerated synthesis and anti-osteoporosis activities evaluation of Morusin scaffolds and Morusignin L scaffolds” (2017).
